Data: patent US6861441B1, “Use of EP4 receptor ligands in the treatment of neuropathic pain and colon cancer” (SmithKline Beecham Corporation, priority 1999, dated 2005)

Experiments:
human EP4 receptors = molecular target: T1, human EP4 receptors (Homo sapiens, UniProt P35408); test: Human EP4 Scintillation Proximity Assay (SPA), [3H]-prostaglandin E2 competition binding
T1 construct: expressed in transfected cells; host or cells: Chinese Hamster Ovary (CHO) cells infected with Semliki Forest Virus carrying an SFV-1 RNA construct with the hEP4 receptor; membranes were prepared from these cells
T1 sequence (P35408 whole entry): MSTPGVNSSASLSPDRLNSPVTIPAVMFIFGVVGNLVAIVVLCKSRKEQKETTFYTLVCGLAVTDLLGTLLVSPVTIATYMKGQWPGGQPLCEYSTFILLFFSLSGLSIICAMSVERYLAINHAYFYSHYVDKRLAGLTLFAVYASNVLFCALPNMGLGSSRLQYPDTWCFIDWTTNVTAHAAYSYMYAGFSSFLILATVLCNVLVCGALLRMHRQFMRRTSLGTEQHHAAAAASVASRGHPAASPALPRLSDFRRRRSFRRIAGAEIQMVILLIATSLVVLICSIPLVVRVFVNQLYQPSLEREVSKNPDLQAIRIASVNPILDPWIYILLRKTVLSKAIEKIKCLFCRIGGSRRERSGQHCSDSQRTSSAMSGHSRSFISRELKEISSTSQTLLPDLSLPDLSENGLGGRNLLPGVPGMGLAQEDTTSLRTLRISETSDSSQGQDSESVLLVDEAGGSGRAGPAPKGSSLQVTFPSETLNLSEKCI
Protocol: Quantification of radioligand binding by scintillation proximity assay (SPA) is a long-established principle. Briefly, the affinity of compounds for a receptor is assessed by the specific competition between known quantities of radiolabelled ligand and compound for that receptor. Increasing concentrations of compound reduce the amount of radiolabel that binds to the receptor. This gives rise to a diminishing scintillation signal from SPA beads coated with membranes that bear the receptor. The signal may be detected with a suitable scintillation counter and the data generated may be analysed with suitable curve-fitting software.
The human EP4 SPA assay (hereafter referred to as ‘the assay’) utilises membranes prepared from Chinese Hamster Ovary (CHO cells) infected with Semliki Forest Virus (SFV). […]
For assay, membranes expressing human EP4 receptors are diluted in a pH-buffered medium and mixed with SPA beads coated with a suitable substance to facilitate the adhesion of membranes to the beads. […] Nonspecific binding (nsb) may be determined by competition between the radiolabelled ligand and a saturating concentration of unlabelled ligand. In order to quantify the affinity of EP4 receptor ligands, compounds are diluted in a stepwise manner across the wells of a 96-well plate. […] The affinity (pKi) of the compound may be calculated from the IC50 by application of the Cheng-Prusoff correction. […]

[1] = system: CCI-induced neuropathic hypersensitivity in male random hooded rats; test: Chronic constriction injury (CCI) model of neuropathic hypersensitivity, paw withdrawal threshold; format: in vivo, rat; details: 10 mgkg-1 b.i.d. PO
Source text: Under isoflurane anaesthesia, the common left sciatic nerve was exposed at mid thigh level and four loose ligatures of Chromic gut tied around it. The wound was then closed and secured using suture clips. The surgical procedure was identical for the sham operated animals except the sciatic nerve was not ligated. The rats were allowed a period of seven days to recover from the surgery before behavioural testing began.

## CCOc1c2c(c(OCC)c3ccccc13)C(=O)N(c1ccc(CC(=O)O)cc1)C2 [IF, [4-(4,9-diethoxy-1-oxo-1,3-dihydro-2H-benzo[f]isoindol-2-yl)phenyl]acetic Acid]
Human EP4 receptors
  Ki: 100 nM
[1]; days 20-33 postoperative
  time of chronic dosing until reversal became apparent: 3 days
  time of chronic dosing until reversal was maximal: 1 week
[1]; dosed chronically for 14 days (days 20-33 postoperative)
  effect on CCI-induced decrease in paw withdrawal threshold: reversal of the CCI-induced decrease in paw withdrawal threshold
[1]; after the 14-day dosing period
  paw withdrawal threshold following cessation of the drug treatment: returned to that of the vehicle treated CCI-operated animals
